Measurements: patent US5356921A, “Imidazolylphenol compounds, pharmaceutical compositions containing them, and processes for preparing such compounds and compositions” (Gruenenthal GmbH, priority 1992, dated 1994)
Values belong to the compound of their own block, whether it stands above or below them.

Tests used:
[1] = biological target: T1, 5-lipoxygenase (Rattus norvegicus, UniProt P12527); assay: Inhibition of cell-free 5-lipoxygenase from RBL-1-cells; format: biochemical; details: 10,000×g supernatant of RBL cells; polarographic; arachidonic acid 75 μM
T1 construct: endogenous in cells; host or cells: RBL-1 cells (rat basophilic leukemia), intact
T1 sequence (P12527 1-673): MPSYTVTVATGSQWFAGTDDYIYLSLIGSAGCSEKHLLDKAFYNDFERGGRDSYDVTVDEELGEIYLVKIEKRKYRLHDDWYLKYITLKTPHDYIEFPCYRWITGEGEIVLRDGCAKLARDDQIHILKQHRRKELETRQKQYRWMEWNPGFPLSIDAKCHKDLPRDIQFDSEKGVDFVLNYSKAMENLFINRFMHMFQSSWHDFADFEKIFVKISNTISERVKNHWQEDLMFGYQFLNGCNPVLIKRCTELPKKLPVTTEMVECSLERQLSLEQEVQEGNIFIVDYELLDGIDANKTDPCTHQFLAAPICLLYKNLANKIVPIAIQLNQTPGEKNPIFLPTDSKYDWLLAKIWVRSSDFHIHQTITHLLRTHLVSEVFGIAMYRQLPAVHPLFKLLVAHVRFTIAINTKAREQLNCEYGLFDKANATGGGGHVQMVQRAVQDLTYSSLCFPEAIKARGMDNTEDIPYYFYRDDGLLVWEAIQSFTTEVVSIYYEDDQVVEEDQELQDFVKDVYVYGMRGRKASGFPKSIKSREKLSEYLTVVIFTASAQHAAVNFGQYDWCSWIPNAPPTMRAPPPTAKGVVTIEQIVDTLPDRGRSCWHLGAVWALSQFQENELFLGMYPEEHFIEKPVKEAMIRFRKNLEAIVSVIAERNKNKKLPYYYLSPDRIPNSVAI
Procedure: Cell-free 5-lipoxygenase was polarographically measured from 10,000×gsupernatant of homogenized rat basophilic leucemia cells [M. Haurand and L. Flohe in Biol. Chem. Hoppe-Seyler 369, 133-142 (1988)]. After preincubation of the 10,000×g supernatant with arachidonic acid (75 μM), ATP (adenosine triphosphate; 4 μM), reduced glutathione (4 mM), and either a compound according to the invention (0.1 to 100 μM) or a solvent (ethanol and/or dimethyl sulfoxide) at 35° C. for 5 minutes, the lipoxygenase reaction was initiated by addition of calcium chloride (3 mM) and recorded simultaneously.
The activity of 5-lipoxygenase was determined from the difference of the pO2 -decrease before and after addition of calcium chloride. The evaluation included the initial rate of the reaction after the lag-phase as well as the duration of the lag-phase. In a concentration range of from 5 to 10 μM the test substances induced lag-phases of 15 seconds.

[2] = biological target: T2, thromboxane synthase (Homo sapiens, UniProt P24557); assay: Inhibition of thromboxane synthase (human thrombocytes); format: cell-based; details: for IC50: human thrombocytes, arachidonic acid 3.5 μM, read-out: IC50-Value, inhibition of thromboxane synthase (TXB2 formation); for inhibitory action on thromboxane synthase: in words
T2 construct: human thrombocytes were isolated from platelet-rich plasma; endogenous in cells; host or cells: human thrombocytes (platelets), intact
T2 sequence (P24557 1-533): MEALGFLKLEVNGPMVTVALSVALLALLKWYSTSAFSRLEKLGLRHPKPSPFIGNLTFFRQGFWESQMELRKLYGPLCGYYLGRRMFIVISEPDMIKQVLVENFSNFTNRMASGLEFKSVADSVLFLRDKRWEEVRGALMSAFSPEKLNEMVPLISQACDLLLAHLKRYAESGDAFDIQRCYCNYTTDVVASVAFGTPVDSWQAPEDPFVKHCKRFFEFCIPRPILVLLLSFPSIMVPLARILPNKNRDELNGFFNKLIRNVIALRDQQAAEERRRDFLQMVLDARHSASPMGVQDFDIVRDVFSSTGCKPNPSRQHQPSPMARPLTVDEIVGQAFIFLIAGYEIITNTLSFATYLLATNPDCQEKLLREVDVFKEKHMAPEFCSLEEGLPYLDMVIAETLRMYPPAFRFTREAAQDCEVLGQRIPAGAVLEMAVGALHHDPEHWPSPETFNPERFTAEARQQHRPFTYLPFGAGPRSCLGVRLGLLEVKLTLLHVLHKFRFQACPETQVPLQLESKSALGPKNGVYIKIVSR
Procedure: After addition of prostacyclin, human thrombocytes were isolated from platelet-rich plasma and suspended in Tyrode-Hepes buffer of pH 7.4 at 2×10^8 cells/ml. One ml aliquots of cells were incubated either with a compound according to the invention (0.1 to 100 μM) or a solvent (ethanol and/or dimethyl sulfoxide) at 37° C. for 3 minutes and thereafter with radioactively labelled arachidonic acid (3.5 μM) for 5 minutes. The reaction was stopped and the metabolites of arachidonic acid were extracted by adding methanol, chloroform and formic acid. After evaporation of the chloroform-containing layer to dryness under nitrogen, the residue obtained was resuspended in 50 μl chloroform and analyzed by thin layer chromatography. The distribution of the radioactivity of the different metabolites of arachidonic acid was measured using a TLC linear analyzer.

[3] = biological target: T1, 5-lipoxygenase; assay: Inhibition of 5-lipoxygenase in RBL-1-cells; format: cell-based; details: 20 μM [14C]-arachidonic acid, 20 μM A 23 187
Procedure: To determine the inhibition of 5-lipoxygenase rat basophilic leukemia cells (RBL-1-cells) were cultured in vitro, harvested by centrifugation, washed with 50 mM potassium phosphate buffer of pH 7.4, and then suspended in this buffer at 1×10^7 cells/mi. To 1 ml each of this suspension there was added indomethacin (10 μM) and calcium chloride (2 mM), and then the mixture was incubated in the absence or presence of a compound according to the invention in a concentration range of from 0.1 μM to 100 μM for 3 minutes and thereafter with 20 μM of [^14 C]-arachidonic acid and 20 μM of the calcium ionophore A 23 187 for 10 minutes. The reaction was stopped by adding 20 μl of glacial acetic acid, and then the mixture was extracted with ethyl acetate to isolate the metabolites of arachidonic acid formed by the enzymatic action of 5-lipoxygenase. These were separated by thin layer chromatography using a solvent mixture known to be suitable for lipoxygenase products [c.f. Jakschik et al., Biochem. Biophys. Res. Commun. 102, 624 (1981)].
The distribution of the radioactivity among the various metabolites of arachidonic acid was measured using a TLC Linear Analyzer. By correlating the percentages of the amount of the products formed under the action of 5lipoxygenase (5-HETE, isomers of LTB4) in the absence as well as in the presence of different concentrations of compounds according to the invention, the IC50 -values, i.e. the concentrations which cause 50% inhibition of 5-lipoxygenase were determined graphically from semilogarithmic diagrams.

[4] = tested on: 5-lipoxygenase; assay: 5-lipoxygenase inhibition in rat blood after oral administration (ex vivo iLTB4-formation); details: male Wistar rats, 21.5 mg/kg oral, one hour after administration, A 23 187 15 μg/ml
Procedure: The bioavailability of the compounds of formula I as 5-lipoxygenase inhibitors was characterized by means of an ex vivo biochemical assessment method described by Tateson et al. in Brit. J. Pharmacol. 94, 528 (1988). A compound of formula I was orally administered to male rats (Wistar strain) in a dose of 21.5 mg/kg. One hour after administration the rats after lethal CO2 -narcosis were bled by heart puncture with added heparin as an anticoagulant. Aliquots of the whole blood were incubated at 37° C. for 30 minutes in a water bath with calcium ionophore A 23 187 at an end concentration of 15 μg/ml. At the end of the incubation the samples were centrifuged, and the concentration of immunoreactive LTB4 (iLTB4) in aliquots of […] percent inhibition of ex vivo iLTB4 -formation in whole blood of rats treated with a compound according to the invention, rats orally treated with an appropriate vehicle solution were included in all experiments, and aliquots of their blood were run in parallel and were processed in the same way as described. The average iLTB4 -content of the plasma of the vehicle treated rats served as the 100% value. The activity in percent of the ex vivo iLTB4 -formation after oral administration of a compound according to the invention was calculated by dividing the average value of the iLTB4 -content in ng iLTB4 /ml of the group treated with a compound according to the invention by the average value of the iLTB4 -contents in ng iLTB4 /ml of the vehicle treated group and subsequent multiplication by the factor 100. The respective inhibition in percent was calculated by subtracting the activity in percent from 100.

[5] = tested on: guinea pigs; assay: Allergen-induced bronchoconstriction in guinea pigs (Konzett-Roessler); format: in vivo, guinea pig; details: 60 minutes before ovalbumin
Procedure: The antiasthmatic effect of compounds according to the invention was tested in anesthetized and ventilated guinea pigs. To induce an asthmatic reaction, the animals were passively sensitized by a single intraperitoneal injection of anti-ovalbumin serum. After 48 hours an asthmatic reaction was elicited by intravenous challenge with 0.2 mg/kg of ovalbumin. The immediately resulting bronchoconstriction was measured as an increase in intratracheal pressure. Effects caused by histamine, serotonin and sympathic counterreaction were eliminated by intravenous pretreatment with 2.15 mg/kg of mepyramine, 46.4 μg/kg of propranolol, 4.64 mg/kg of atropine, and 1 mg/kg of methysergide, all administered 5 minutes before challenge. Compounds according to the invention were orally administered 60 minutes before the administration of ovalbumin. The following ED40-values for the inhibition of the bronchoconstriction elicited by ovalbumin, i.e. the effective doses causing a 40% average inhibition of the bronchoconstriction, were determined: […]

[6] = tested on: 5-lipoxygenase; details: in words, no test shown; cited from earlier work

SMILES: NC(=O)N(O)Cc1ccc(OCCn2ccnc2)cc1 [Comparison, N-hydroxy-N-[4-[2-(1H-imidazol-1-yl)ethoxy]phenylmethyl]urea, reference compound]
- IC50 [1]: > 100 µM
- IC50 [2]: 4 µM
- IC50 [3]: > 100 µM
- Inhibition of ex vivo iLTB4-formation in whole blood [4]: 42%

SMILES: NC(=O)N(O)Cc1ccc(Oc2ccc(-n3ccnc3)cc2)o1 [Example 6, N-hydroxy-N-[5-[4-(1H-imidazol-1-yl)phenoxy]furan-2-yl-methyl]urea]
- Inhibition of ex vivo iLTB4-formation in whole blood [4]: 84%

SMILES: Cl.O=C(O)c1ccc(OCCn2ccnc2)cc1 [UK 37 248, 4-[2-(1H-imidazol-1-yl)-ethoxy]benzoic acid hydrochloride, reference compound]
- inhibitory action on thromboxane synthase [2]: inhibits the activity of thromboxane synthase
- inhibits the activity of 5-lipoxygenase [6]: not the activity of 5-lipoxygenase

More lines, main results first:

- IC50 [3]: 5 µM
SMILES: NC(=O)N(O)Cc1ccc(Oc2ccc(-n3ccnc3)cc2)cc1 [Example 2, Imidazolium Chloride of N-hydroxy-N-[4-[4-(1H-imidazol-1-yl)phenoxy]phenylmethyl]urea]
- ED50-Value, inhibition of the bronchoconstriction elicited by ovalbumin ([5]; oral, ED40): 5.1 mg/kg
- Inhibition of ex vivo iLTB4-formation in whole blood ([4]; 21.5 mg/kg): 95%

- IC50 [3]: 3 µM
SMILES: NC(=O)N(O)Cc1ccc(Oc2ccc(-n3ccnc3)cc2)s1 [Example 4, N-hydroxy-N-[5-[4-(1H-imidazol-1-yl)phenoxy]thien-2-yl-methyl]urea]
- ED40 ([5]; Cavia porcellus, po, 1 h, read-out: ED40-Value, inhibition of the bronchoconstriction elicited by ovalbumin): 6.3 mg/kg
- Inhibition of ex vivo iLTB4-formation in whole blood [4]: 93%

- IC50 [1]: 2 µM
- IC50 [2]: 2.5 µM
- IC50 [3]: 6 µM
SMILES: NC(=O)N(O)Cc1cccc(Oc2ccc(-n3ccnc3)cc2)c1 [Example 5, N-hydroxy-N-[3-[4-(1H-imidazol-1-yl)phenoxy]phenylmethyl]urea]
- inhibitory action on thromboxane synthase [2]: same inhibitory potency as the hydrochloride of the imidazolylethoxybenzoic acid UK 37 248

- IC50 [3]: 2 µM
SMILES: NC(=O)N(O)Cc1ccc(Oc2cccc(-n3ccnc3)c2)cc1 [Example 10, N-hydroxy-N-[4-[3-(1H-imidazol-1-yl)phenoxy]phenylmethyl]urea]

- IC50 [2]: > 100 µM
SMILES: CC(c1cc2ccccc2s1)N(O)C(N)=O (centres unmarked) [Zileuton (A 64 077), reference compound]
- inhibitory action on thromboxane synthase [2]: did not exert an inhibitory action on thromboxane synthase
